Results as given in patent publication US9783527B2, “Indazole ureas and method of use” (AbbVie Inc., priority 2014, dated 2017).
pIC50: −log10 of the molar value.

What follows are compounds tested against human Nav1.7 (Homo sapiens (Human), UniProt Q15858) (assay: FRET-based membrane potential assay, recombinant human sodium channel Nav1.7). Settings: HEK293 cells stably expressing recombinant human Nav1.7; depolarization with veratridine (EC80) + scorpion venom.
Type: cell-based
Method: FRET-Based Membrane Potential Assays.
Recombinant, Human Sodium Channel, Nav1.7.
Two days prior to the experiment, frozen HEK293 cells stably expressing recombinant human Nav1.7 were quickly thawed and plated at 25,000 cells/well in growth medium [DMEM (Invitrogen #11965) with 10% HI FBS (Invitrogen #10082), 2 mM glutamine, 100 units/mL penicillin, 0.1 mg/mL streptomycin (PSG, Sigma #G1146), and 500 μg/mL Geneticin (Invitrogen #10131)] in black-walled, clear-bottom 384-well poly-D-lysine-coated assay plates (Greiner Bio-One, Frickenhausen, Germany) and incubated in a humidified 5% CO2 incubator at 37° C. On the day of the assay, medium was removed by aspiration, and cells were washed with assay buffer [HBSS (Invitrogen, Carlsbad, Calif.) containing 20 mM HEPES (Invitrogen, Carlsbad, Calif.)]. After washing, 30 μL assay buffer containing the fluorescent voltage-sensor probe CC2-DMPE (Invitrogen, Carlsbad, Calif.) at 20 μM and 0.01% pluronic F-127 (Invitrogen, Carlsbad, Calif.) was added to the cells. Cells were incubated for 40 minutes at room temperature in the dark. Following the incubation, the cells were washed and 30 μL assay buffer containing 2.5 μM DiSBAC2(3) substrate (Invitrogen, Carlsbad, Calif.) and 0.5 mM VABSC-1 (Invitrogen, Carlsbad, Calif.) was added to the cells. The cells were incubated for 90 minutes at room temperature in the dark. Fluorescence readings were made using a FLIPR®^TETRA (Molecular Devices, Sunnyvale Calif.) equipped with voltage-sensor probe optics. At the start of each experiment the optimal (EC80) concentration of depolarizing agent (veratridine) was determined by testing a dilution curve of assay buffer containing veratridine (Sigma-Aldrich, St. Louis, Mo.) and 1 mg/mL scorpion venom (SVqq, from Leiurus quinquestriatus; Sigma-Aldrich, St. Louis, Mo.). […] Test compounds in the daughter plate were diluted to (˜3×) solutions in assay buffer immediately before assaying. Using the FLIPR®^TETRA, 20 μL of the (3×) compound solutions were first added to the cells, then 20 μL of depolarizing solution (3×EC80 veratridine+SVqq) were added 3 minutes later to activate the channel. Changes in fluorescence were measured at wavelengths of 440-480 nm and 565-625 nm over the course of the experimental run. Membrane depolarization was expressed as a ratio of the maximum F440-480 nm/F565-625 nm reading above average baseline F440-480 nm/F565-625 nm reading. IC50 values were calculated from curve fits of the ratio data using a four-parameter logistic Hill equation (Accelrys Assay Explorer 3.3 Client, Accelrys, San Diego, Calif.) with percent inhibition plotted against compound concentration.

Sequence of human Nav1.7 (Q15858 whole entry): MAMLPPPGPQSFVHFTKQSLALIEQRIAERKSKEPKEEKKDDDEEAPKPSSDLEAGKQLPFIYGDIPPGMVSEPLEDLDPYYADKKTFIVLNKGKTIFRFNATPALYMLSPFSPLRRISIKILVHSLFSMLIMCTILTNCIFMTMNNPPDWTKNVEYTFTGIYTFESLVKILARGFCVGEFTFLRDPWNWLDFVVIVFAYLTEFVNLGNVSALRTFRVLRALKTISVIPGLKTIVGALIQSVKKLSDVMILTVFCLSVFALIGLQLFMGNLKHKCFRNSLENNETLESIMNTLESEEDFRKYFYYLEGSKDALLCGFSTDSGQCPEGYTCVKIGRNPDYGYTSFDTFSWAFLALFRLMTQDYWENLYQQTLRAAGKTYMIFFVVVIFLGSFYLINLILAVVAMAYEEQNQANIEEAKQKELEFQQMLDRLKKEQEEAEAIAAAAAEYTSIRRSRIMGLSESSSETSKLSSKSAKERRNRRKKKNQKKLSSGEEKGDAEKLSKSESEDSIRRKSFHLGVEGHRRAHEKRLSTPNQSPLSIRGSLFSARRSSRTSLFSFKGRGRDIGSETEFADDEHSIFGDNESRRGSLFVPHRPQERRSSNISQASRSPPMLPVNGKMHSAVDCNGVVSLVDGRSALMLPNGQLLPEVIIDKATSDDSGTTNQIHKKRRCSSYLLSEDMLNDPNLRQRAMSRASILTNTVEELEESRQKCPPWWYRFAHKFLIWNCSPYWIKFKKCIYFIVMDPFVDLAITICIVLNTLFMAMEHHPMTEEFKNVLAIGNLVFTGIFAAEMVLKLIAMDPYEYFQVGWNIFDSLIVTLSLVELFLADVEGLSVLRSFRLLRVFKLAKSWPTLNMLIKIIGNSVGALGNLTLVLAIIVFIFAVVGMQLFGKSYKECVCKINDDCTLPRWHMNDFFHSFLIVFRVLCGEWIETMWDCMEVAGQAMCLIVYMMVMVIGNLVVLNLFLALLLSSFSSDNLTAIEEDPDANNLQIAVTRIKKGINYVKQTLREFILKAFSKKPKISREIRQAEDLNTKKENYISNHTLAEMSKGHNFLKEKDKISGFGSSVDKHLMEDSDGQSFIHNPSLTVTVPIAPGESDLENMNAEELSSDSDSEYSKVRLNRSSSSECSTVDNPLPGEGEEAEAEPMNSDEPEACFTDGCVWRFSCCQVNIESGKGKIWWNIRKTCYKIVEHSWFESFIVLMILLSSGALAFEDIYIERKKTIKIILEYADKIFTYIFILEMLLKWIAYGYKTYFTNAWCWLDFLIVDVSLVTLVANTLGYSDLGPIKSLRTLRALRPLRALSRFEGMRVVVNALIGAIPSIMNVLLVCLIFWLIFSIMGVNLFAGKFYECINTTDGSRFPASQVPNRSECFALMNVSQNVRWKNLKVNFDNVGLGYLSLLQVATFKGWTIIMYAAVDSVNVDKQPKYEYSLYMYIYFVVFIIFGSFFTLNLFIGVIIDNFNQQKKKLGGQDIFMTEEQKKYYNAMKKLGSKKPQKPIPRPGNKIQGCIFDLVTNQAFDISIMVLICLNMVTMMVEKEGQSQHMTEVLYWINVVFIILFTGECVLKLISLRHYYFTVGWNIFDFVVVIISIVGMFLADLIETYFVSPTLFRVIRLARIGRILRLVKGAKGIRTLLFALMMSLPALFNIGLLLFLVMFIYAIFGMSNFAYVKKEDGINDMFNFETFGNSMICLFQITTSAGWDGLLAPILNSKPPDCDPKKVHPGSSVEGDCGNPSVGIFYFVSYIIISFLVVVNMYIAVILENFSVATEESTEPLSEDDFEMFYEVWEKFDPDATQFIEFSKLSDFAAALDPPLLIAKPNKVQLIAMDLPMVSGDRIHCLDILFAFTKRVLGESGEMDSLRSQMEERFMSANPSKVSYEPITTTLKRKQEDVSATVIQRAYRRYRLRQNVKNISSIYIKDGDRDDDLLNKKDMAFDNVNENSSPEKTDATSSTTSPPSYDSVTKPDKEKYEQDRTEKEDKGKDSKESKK

Q: How did the pIC50 turn out when `C[C@H]1CCN(C(=O)CN2CCN(c3cccc4c3cnn4-c3ccccc3F)C2=O)C1` [Example 90, 1-[1-(2-fluorophenyl)-1H-indazol-4-yl]-3-{2-[(3S)-3-methylpyrrolidin-1-yl]-2-oxoethyl}imidazolidin-2-one] was run?
A: The pIC50 was 5.76.

Q: `O=C(CN1CCN(c2cccc3c2cnn3-c2ccccc2F)C1=O)N1CC(F)(F)C1` [Example 91, 1-[2-(3,3-difluoroazetidin-1-yl)-2-oxoethyl]-3-[1-(2-fluorophenyl)-1H-indazol-4-yl]imidazolidin-2-one] was tested. Which pIC50 did it give?
A: The pIC50 was 5.76.

Q: `CC(C)CNC(=O)CN1CCN(c2cccc3c2cnn3-c2ccccc2F)C1=O` [Example 92, 2-{3-[1-(2-fluorophenyl)-1H-indazol-4-yl]-2-oxoimidazolidin-1-yl}-N-isobutylacetamide] was tested. Which pIC50 did it give?
A: The pIC50 was 5.73.

Q: `O=C(CN1CCN(c2cccc3c2cnn3-c2ccccc2F)C1=O)N1CCC1` [Example 94, 1-[2-(azetidin-1-yl)-2-oxoethyl]-3-[1-(2-fluorophenyl)-1H-indazol-4-yl]imidazolidin-2-one] was tested. Which pIC50 did it give?
A: The pIC50 was 4.92.

Q: `CC(C)NC(=O)CN1CCN(c2cccc3c2cnn3-c2ccccc2F)C1=O` [Example 95, 2-{3-[1-(2-fluorophenyl)-1H-indazol-4-yl]-2-oxoimidazolidin-1-yl}-N-isopropylacetamide] was tested. Which pIC50 did it give?
A: The pIC50 was 5.57.

Q: `CC(C)OCC(=O)N1CCN(c2cccc3c2cnn3-c2ccccc2F)C1=O` [Example 96, 1-[1-(2-fluorophenyl)-1H-indazol-4-yl]-3-(isopropoxyacetyl)imidazolidin-2-one] was tested. Which pIC50 did it give?
A: The pIC50 was 5.79.

Q: With `O=C1N(Cc2cc(C(F)(F)F)ccn2)CCN1c1cccc2c1cnn2-c1ccccc1F` [Example 97, 1-[1-(2-fluorophenyl)-1H-indazol-4-yl]-3-{[4-(trifluoromethyl)pyridin-2-yl]methyl}imidazolidin-2-one] as the compound, how does the pIC50 read?
A: Its pIC50 is 5.62.

Q: With `CCOCC1(F)CCN(C(=O)CN2CCN(c3cccc4c3cnn4-c3ccccc3F)C2=O)C1` (stereo not shown) [Example 98, 1-{2-[3-(ethoxymethyl)-3-fluoropyrrolidin-1-yl]-2-oxoethyl}-3-[1-(2-fluorophenyl)-1H-indazol-4-yl]imidazolidin-2-one] as the compound, how does the pIC50 read?
A: The pIC50 was 5.84.

Q: With `O=C(CN1CCN(c2cccc3c2cnn3-c2ccccc2F)C1=O)N1CCN2CCC[C@H]2C1` [Example 99, 1-[1-(2-fluorophenyl)-1H-indazol-4-yl]-3-{2-[(8aS)-hexahydropyrrolo[1,2-c]pyrazin-2(1H)-yl]-2-oxoethyl}imidazolidin-2-one] as the compound, how does the pIC50 read?
A: Its pIC50 is 6.32.

Q: With `CC1COCC(C)N1C(=O)CN1CCN(c2cccc3c2cnn3-c2ccccc2F)C1=O` (stereo not shown) [Example 101, 1-[2-(3,5-dimethylmorpholin-4-yl)-2-oxoethyl]-3-[1-(2-fluorophenyl)-1H-indazol-4-yl]imidazolidin-2-one] as the compound, how does the pIC50 read?
A: The pIC50 was 5.45.

Q: With `O=C(CN1CCN(c2cccc3c2cnn3-c2ccccc2F)C1=O)N1CCC2(C1)OCCO2` [Example 102, 1-[2-(1,4-dioxa-7-azaspiro[4.4]non-7-yl)-2-oxoethyl]-3-[1-(2-fluorophenyl)-1H-indazol-4-yl]imidazolidin-2-one] as the compound, how does the pIC50 read?
A: Its pIC50 is 5.46.

Q: How did the pIC50 turn out when `O=C1CN(C(=O)CN2CCN(c3cccc4c3cnn4-c3ccccc3F)C2=O)CC(=O)N1` [Example 103, 4-({3-[1-(2-fluorophenyl)-1H-indazol-4-yl]-2-oxoimidazolidin-1-yl}acetyl)piperazine-2,6-dione] was run?
A: The pIC50 was 5.44.

Q: `CN1CC2CN(C(=O)CN3CCN(c4cccc5c4cnn5-c4ccccc4F)C3=O)CC2C1` (stereo not shown) [Example 104, 1-[1-(2-fluorophenyl)-1H-indazol-4-yl]-3-[2-(5-methylhexahydropyrrolo[3,4-c]pyrrol-2(1H)-yl)-2-oxoethyl]imidazolidin-2-one] was tested. Which pIC50 did it give?
A: Its pIC50 is 5.20.

Q: How did the pIC50 turn out when `O=C1N(CC(=O)N2CCOC3CCCCC32)CCN1c1cccc2c1cnn2-c1ccccc1F` (stereo not shown) [Example 105, 1-[1-(2-fluorophenyl)-1H-indazol-4-yl]-3-[2-(octahydro-4H-1,4-benzoxazin-4-yl)-2-oxoethyl]imidazolidin-2-one] was run?
A: Its pIC50 is 5.88.

Q: How did the pIC50 turn out when `O=C(CN1CCN(c2cccc3c2cnn3-c2ccccc2F)C1=O)N1CC2CCCC2C1` (stereo not shown) [Example 106, 1-[1-(2-fluorophenyl)-1H-indazol-4-yl]-3-[2-(hexahydrocyclopenta[c]pyrrol-2(1H)-yl)-2-oxoethyl]imidazolidin-2-one] was run?
A: Its pIC50 is 6.20.

Q: With `O=C1N(CC(=O)N2CC3C[C@@H]4CC2C[C@H](C3)C4)CCN1c1cccc2c1cnn2-c1ccccc1F` [Example 107, 1-{2-[(1R,3r,6s,8S)-4-azatricyclo[4.3.1.1^3,8]undec-4-yl]-2-oxoethyl}-3-[1-(2-fluorophenyl)-1H-indazol-4-yl]imidazolidin-2-one] as the compound, how does the pIC50 read?
A: Its pIC50 is 5.89.

Q: With `CN1C(=O)[C@H]2CN(C(=O)CN3CCN(c4cccc5c4cnn5-c4ccccc4F)C3=O)C[C@H]2C1=O` [Example 108, (3aR,6aS)-5-({3-[1-(2-fluorophenyl)-1H-indazol-4-yl]-2-oxoimidazolidin-1-yl}acetyl)-2-methyltetrahydropyrrolo[3,4-c]pyrrole-1,3(2H,3aH)-dione] as the compound, how does the pIC50 read?
A: The pIC50 was 4.91.

Q: `COC1C2CCC1CN(C(=O)CN1CCN(c3cccc4c3cnn4-c3ccccc3F)C1=O)C2` (stereo not shown) [Example 109, 1-[1-(2-fluorophenyl)-1H-indazol-4-yl]-3-[2-(8-methoxy-3-azabicyclo[3.2.1]oct-3-yl)-2-oxoethyl]imidazolidin-2-one] was tested. Which pIC50 did it give?
A: The pIC50 was 5.99.

Q: With `O=C(CN1CCN(c2cccc3c2cnn3-c2ccccc2F)C1=O)N1CCCC2(CC1)OCCO2` [Example 110, 1-[2-(1,4-dioxa-8-azaspiro[4.6]undec-8-yl)-2-oxoethyl]-3-[1-(2-fluorophenyl)-1H-indazol-4-yl]imidazolidin-2-one] as the compound, how does the pIC50 read?
A: Its pIC50 is 5.55.

Q: With `O=C(CN1CCN(c2cccc3c2cnn3-c2ccccc2F)C1=O)N1C[C@@H]2[C@@H]3CC[C@@H](C3)[C@@H]2C1` [Example 111, 1-[1-(2-fluorophenyl)-1H-indazol-4-yl]-3-{2-[(3aR,4R,7S,7aS)-octahydro-2H-4,7-methanoisoindol-2-yl]-2-oxoethyl}imidazolidin-2-one] as the compound, how does the pIC50 read?
A: Its pIC50 is 6.08.

Q: `CN1CCCC2CN(C(=O)CN3CCN(c4cccc5c4cnn5-c4ccccc4F)C3=O)CC21` (stereo not shown) [Example 112, 1-[1-(2-fluorophenyl)-1H-indazol-4-yl]-3-[2-(1-methyloctahydro-6H-pyrrolo[3,4-b]pyridin-6-yl)-2-oxoethyl]imidazolidin-2-one] was tested. Which pIC50 did it give?
A: The pIC50 was 5.57.

Q: With `C[C@@H]1COCCN1C(=O)CN1CCN(c2cccc3c2cnn3-c2ccccc2F)C1=O` [Example 113, 1-[1-(2-fluorophenyl)-1H-indazol-4-yl]-3-{2-[(3R)-3-methylmorpholin-4-yl]-2-oxoethyl}imidazolidin-2-one] as the compound, how does the pIC50 read?
A: The pIC50 was 5.64.

Q: How did the pIC50 turn out when `CN1[C@H]2CC[C@@H]1CN(C(=O)CN1CCN(c3cccc4c3cnn4-c3ccccc3F)C1=O)CC2` [Example 114, 1-[1-(2-fluorophenyl)-1H-indazol-4-yl]-3-{2-[(1R,6S)-9-methyl-3,9-diazabicyclo[4.2.1]non-3-yl]-2-oxoethyl}imidazolidin-2-one] was run?
A: The pIC50 was 4.84.

Q: With `CC(C)C1CCCN1C(=O)CN1CCN(c2cccc3c2cnn3-c2ccccc2F)C1=O` (stereo not shown) [Example 116, 1-[1-(2-fluorophenyl)-1H-indazol-4-yl]-3-[2-(2-isopropylpyrrolidin-1-yl)-2-oxoethyl]imidazolidin-2-one] as the compound, how does the pIC50 read?
A: The pIC50 was 6.09.

Q: With `CC(C)CC1CCCN1C(=O)CN1CCN(c2cccc3c2cnn3-c2ccccc2F)C1=O` (stereo not shown) [Example 117, 1-[1-(2-fluorophenyl)-1H-indazol-4-yl]-3-[2-(2-isobutylpyrrolidin-1-yl)-2-oxoethyl]imidazolidin-2-one] as the compound, how does the pIC50 read?
A: The pIC50 was 5.75.

Q: `C[C@@H]1CCCN1C(=O)CN1CCN(c2cccc3c2cnn3-c2ccccc2F)C1=O` [Example 118, 1-[1-(2-fluorophenyl)-1H-indazol-4-yl]-3-{2-[(2R)-2-methylpyrrolidin-1-yl]-2-oxoethyl}imidazolidin-2-one] was tested. Which pIC50 did it give?
A: Its pIC50 is 5.96.

Q: How did the pIC50 turn out when `COC(=O)[C@H]1CCCN1C(=O)CN1CCN(c2cccc3c2cnn3-c2ccccc2F)C1=O` [Example 119, methyl 1-({3-[1-(2-fluorophenyl)-1H-indazol-4-yl]-2-oxoimidazolidin-1-yl}acetyl)-D-prolinate] was run?
A: The pIC50 was 5.75.

Q: How did the pIC50 turn out when `O=C(Nc1ccccc1)[C@H]1CCCN1C(=O)CN1CCN(c2cccc3c2cnn3-c2ccccc2F)C1=O` [Example 120, 1-({3-[1-(2-fluorophenyl)-1H-indazol-4-yl]-2-oxoimidazolidin-1-yl}acetyl)-N-phenyl-D-prolinamide] was run?
A: Its pIC50 is 5.38.
